Results published in PMC10098121, “Amphipathic barbiturates as marine product mimics with cytolytic and immunogenic effects on head and neck squamous cell carcinoma cell lines” (Frontiers in Pharmacology, 2023).

Assays:
Type in all cases: cell-based, human
UT-SCC-24A cells [1] = assay: Western blot for extracellular HMGB1; conditions: 24 h, supernatant
Method: Detection of HMGB1 in the supernatant of MPM treated HSC-3 and UT-SCC-24A cells was performed as previously described ([von Hofsten et al., 2022]). Briefly, HSC-3 and UT-SCC-24A cells were seeded, 100,000 cells/well in 12-well plates and left to adhere overnight. The following day, the media was removed and replaced with media containing either 50 µM cisplatin, 5 or 10 µM MPM-2:0 or MPM-6:0, or 10 or 20 µM MPM-3:2 or MPM-4:2. The cells were incubated for 24 h before supernatants were collected and centrifuged to remove debris. Supernatant samples were mixed with DTT (final concentration 50 mM) and sample buffer before being boiled for 5 min and loaded on a NuPAGE® 10% Bis–Tris Gel (Thermo Fisher Scientific) before being electro-transferred to a polyvindiline dilfluoride (PVDF) immobilon-P membrane (Merck, Rahway, NJ, United States). The membrane was blocked for 1 h with 5% non-fat dry milk in TBST and then incubated overnight at 4°C with the primary antibody targeting HMGB1 (#ab18256, Abcam) diluted 1:1,000 in TBST 5% non-fat dry milk. Next, the membrane was washed three times in TBST and incubated with an HRP-conjugated goat anti-rabbit secondary antibody (#4050-05, Southern Biotech, Birmingham, AL, United States) diluted 1:2000 in TBST 5% non-fat dry milk at room temperature for 1 h. […]

[2] = tested on: cell surface calreticulin on UT-SCC-24A cells; assay: Flow cytometric detection of cell surface calreticulin; conditions: 24 h, cisplatin 50 µM, MPMs 5-20 µM, vs untreated
Method: This procedure was based on a published method ([Liu et al., 2020]), but was performed with some modifications. Briefly, HSC-3 and UT-SCC-24A cells were seeded, 300,000 cells/well, in 6-well plates and left to adhere overnight. The media was then removed and replaced by 2 ml complete DMEM/F-12 containing 5, 7.5, 10 or 20 µM of MPM-2:0, MPM-6:0, MPM-3:2 or MPM-4:2, or 50 µM cisplatin. Some cells were left untreated. The cells were then incubated for 24 h. Next, the cell supernatants were collected before the cells were trypsinized and spun down with the supernatants. The cells were then washed in PBS before being incubated with the viability dye Zombie Violet (#423114, BioLegend, San Diego, CA, United States) diluted 1:500 in PBS for 20 min. Next, the cells were incubated with an anti-calreticulin antibody (#ab2907, Abcam) diluted 1:100 in FACS buffer (2%BSA in PBS) for 30 min. The cells were then fixed in 4% formaldehyde for 15 min and washed twice in FACS buffer before being incubated with the secondary antibody (#A11034, Thermo Fisher Scientific) diluted 1:250 in FACS buffer for 30 min. The cells were washed in FACS buffer and analyzed on a LSR Fortessa (BD Biosciences) within 1 week. Analyses were performed in FlowJo™ v.10 (https://www.flowjo.com/).

UT-SCC-24A cells [3] = assay: MTS viability assay with bafilomycin A1 and z-VAD-FMK; conditions: 24 h, cisplatin 50 µM, MPM-2:0/MPM-6:0 10 µM, MPM-3:2/MPM-4:2 20 µM
Method: HSC-3 and UT-SCC-24A cells were seeded, 10,000 cells/well, in flat bottom 96-well plates and left to adhere overnight. The supernatants were then removed and replaced by 50 µl of complete DMEM/F-12 ± 100 nM BafA1 (#196000, Sigma-Aldrich, St. Louis, MO, United States) or 50 µM z-VAD-FMK (#219007, Sigma-Aldrich). The plate was then incubated for 1 hour before another 50 µl of complete DMEM/F-12 ± 100 nM BafA1 or 50 µM z-VAD-FMK as well as the MPMs or cisplatin was added. The final concentration of cisplatin was 50 µM and for the MPMs it was 5 or 10 µM for MPM-2:0 and MPM-6:0, and 10 or 20 µM for MPM-3:2 and MPM-4:2, for HSC-3 and UT-SCC-24A cells, respectively. 100 μl of media ± 1% Triton X-100 served as […]. The cells were incubated for 24 h before 20 µl of MTS reagent (CellTiter 96® Aqueous One Solution, Promega, Madison, WI, United States) was added to each well. The plate was then incubated for one more hour before absorbance was measured at 490 nm on a VersaMaxTM Microplate reader (Molecular Devices, San Jose, CA, United States). Viability was calculated using the following formula: %=Abs treated sample−Abs positive control/Abs negative control−Abs positive control x 100
At least three independent experiments were performed, with triplicate wells in each experiment.

HSC-3 cells = assay: Live cell apoptosis assay (caspase 3/7, proliferation); conditions: HSC-3, 24 h; MPMs 5 or 10 µM, cisplatin 10 µM
Method: A black-walled 96-well plate (#6005182, PerkinElmer, Waltham, MA, United States) was coated with 50 µl myogel (0.5 mg/ml) per well. The next day, HSC-3 and UT-SCC-24A cells were stained with CellTrace Far Red (Invitrogen, Carlsbad, CA, USA) by resuspending 500,000 cells in 500 µl PBS and adding 0.5 µl of the dye before incubating the cells at 37°C for 20 min. Next, 2.5 ml of complete media was added to the cells, and they were incubated for another 5 min. The cells were then centrifuged and resuspended in complete media. The media remaining in the wells of the 96-well plate after myogel coating was removed and the cells were seeded with 1,000 cells/well in 100 µl of media. The cells were left to adhere overnight, and the following day, the media was replaced with 100 µl of media containing the Incucyte® caspase-3/7 green dye for apoptosis (Sartorius, Göttingen, Germany) (diluted 1:1,000), as well as 5 or 10 µM of the MPMs or 10 µM cisplatin. Control wells only contained media and the caspase-3/7 green dye. The plate was placed in the Incucyte S3 (Sartorius) and imaged at ×10 magnification every 2 hours for 24 h in total. Each condition had triplicate wells, and four images were taken per well. The experiment was conducted three times. The Incucyte software was used to analyze the area of red fluorescence (proliferation) and number of green and red objects (apoptotic cells).

NCCN1C(=O)N(CCN)C(=O)C(CCCc2ccccc2)(CCCc2ccccc2)C1=O [MPM-2:0]
release of HMGB1 (in words) (UT-SCC-24A cells [1]): statistically significant

NCCCCCCN1C(=O)N(CCCCCCN)C(=O)C(CCCc2ccccc2)(CCCc2ccccc2)C1=O [MPM-6:0]
release of HMGB1 (in words) (UT-SCC-24A cells [1]): statistically significant | cell surface expression of calreticulin (in words) [2]: statistically significant levels of cell surface calreticulin

N.N.[Cl][Pt][Cl] [Cisplatin, cisplatin, reference compound]
viability in the presence of BafA1 (100 nM) or z-VAD-FMK (50 µM) (in words) (UT-SCC-24A cells [3]): z-VAD-FMK seemed to have some protective effects against cisplatin for both cell lines, while BafA1 had the opposite effect | activation of caspase 3/7 / apoptosis (in words) (HSC-3 cells): only induced apoptosis in a minority of HSC-3 cells | proliferation (area of red fluorescence, in words) (HSC-3 cells): inhibited proliferation in HSC-3 cells | cell surface expression of calreticulin (in words) [2]: did not induce any cell surface expression of calreticulin
